Laboratory results from patent US20260297042A1, “BIARYLAMIDE DERIVATIVES AND THEIR USE AS PKMYT1 INHIBITORS” (CANCER RESEARCH TECHNOLOGY LIMITED, priority 2023, published 2026).

Experiments:
[1] = biological target: T1, WEE1 (Homo sapiens, UniProt P30291); test: Selectivity versus WEE1 assay (ADP-Glo enzymatic assay); format: biochemical; conditions: for IC50: WEE1 15 nM, ADP-Glo, banded values; for PKMYT1 vs. WEE1 selectivity: fold difference in selectivity for PKMYT1 over WEE1, banded
T1 construct: purchased Thermo Fisher PR7373A
T1 sequence (P30291 whole entry): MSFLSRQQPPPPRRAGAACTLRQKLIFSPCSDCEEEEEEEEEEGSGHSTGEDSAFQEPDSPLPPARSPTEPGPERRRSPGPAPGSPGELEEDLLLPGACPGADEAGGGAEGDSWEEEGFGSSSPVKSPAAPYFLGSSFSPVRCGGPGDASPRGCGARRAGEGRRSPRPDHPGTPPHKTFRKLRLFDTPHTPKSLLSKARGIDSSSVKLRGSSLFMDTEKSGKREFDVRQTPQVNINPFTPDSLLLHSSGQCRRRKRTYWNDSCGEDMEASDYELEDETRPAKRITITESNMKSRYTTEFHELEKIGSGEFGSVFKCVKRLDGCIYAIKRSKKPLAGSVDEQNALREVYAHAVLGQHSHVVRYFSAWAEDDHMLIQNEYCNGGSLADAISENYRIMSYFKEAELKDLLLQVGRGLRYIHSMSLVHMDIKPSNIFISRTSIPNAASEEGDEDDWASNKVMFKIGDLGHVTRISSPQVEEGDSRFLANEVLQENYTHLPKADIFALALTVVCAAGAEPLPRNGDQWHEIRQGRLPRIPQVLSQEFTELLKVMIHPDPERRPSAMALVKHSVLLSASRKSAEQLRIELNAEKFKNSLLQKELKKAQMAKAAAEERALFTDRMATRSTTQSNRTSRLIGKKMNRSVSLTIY
Method in brief: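 Same format as the PKMYT1 assay: WEE1 at 15 nM final with 30 µM ATP, 60 min at 26° C, ADP-Glo luminescence detection, IC50 by dose-response fitting.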

[2] = biological target: T2, Human PKMYT1 (Homo sapiens, UniProt Q99640); test: PKMYT1 biochemical ADP-Glo enzymatic assay; conditions: PKMYT1 kinase domain 15 nM; ADP-Glo; banded values
T2 construct: Human PKMYT1 75-362 was cloned as a TEV cleavable 6xHis fusion; 6xHis (TEV cleavable) (cleaved yes); made in house; host or cells: bacterial cells
T2 sequence (Q99640 75-362): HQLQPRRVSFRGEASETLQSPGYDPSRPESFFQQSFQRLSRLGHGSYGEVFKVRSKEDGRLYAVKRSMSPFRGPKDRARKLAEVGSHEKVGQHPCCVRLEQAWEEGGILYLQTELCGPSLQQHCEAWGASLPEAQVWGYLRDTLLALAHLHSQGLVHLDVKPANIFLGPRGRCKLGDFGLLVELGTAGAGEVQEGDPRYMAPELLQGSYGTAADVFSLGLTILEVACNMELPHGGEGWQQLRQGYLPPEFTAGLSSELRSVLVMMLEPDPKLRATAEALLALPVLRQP
Method in brief: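 Measures inhibition of PKMYT1 autonomous ATP hydrolysis: bacterially expressed human enzyme (75-362, tag cleaved) at 15 nM with 500 µM ATP for 60 min at 26 °C, then ADP-Glo Max detection. IC50s accepted only when replicates agreed within 3-fold and curve r2 exceeded 0.9.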

| IC50 [1] [nM] | PKMYT1 vs. WEE1 selectivity [1] | IC50 [2] [nM] | Compound |
| --- | --- | --- | --- |
| 1000 to 11000 | X (100-<1000 fold) | < 50 | Cc1ccc(O)c(C)c1NC(=O)c1cnc(Nc2cccc(C3=NCCO3)c2)s1 [BAA-461, 2-((3-(4,5-dihydrooxazol-2-yl)phenyl)amino)-N-(3-hydroxy-2,6-dimethylphenyl)thiazole-5-carboxamide] |
| > 11000 | X (100-<1000 fold) | 50 to 1000 | Cc1ccc(O)c(C)c1NC(=O)c1cnc(Nc2ccn(C)n2)o1 [BAA-462, N-(3-Hydroxy-2,6-dimethylphenyl)-2-((1-methyl-1H-pyrazol-3-yl)amino) oxazole-5-carboxamide] |
| > 11000 | X (100-<1000 fold) | 50 to 1000 | Cc1ccc(O)c(C)c1NC(=O)c1nnc(Nc2ccn(C)n2)s1 [BAA-463, N-(3-Hydroxy-2,6-dimethylphenyl)-5-((1-methyl-1H-pyrazol-3-yl)amino)-1,3,4-thiadiazole-2-carboxamide] |
| > 11000 | Y (1000-5000 fold) | < 50 | Cc1cn(C)nc1Nc1nnc(C(=O)Nc2c(C)ccc(O)c2C)s1 [BAA-465, 5-((1,4-dimethyl-1H-pyrazol-3-yl)amino)-N-(3-hydroxy-2,6-dimethylphenyl)-1,3,4-thiadiazole-2-carboxamide] |
| > 11000 | Y (1000-5000 fold) | 50 to 1000 | Cc1ccc(O)c(C)c1NC(=O)c1nnc(Nc2ccn(C3CCC3)n2)s1 [BAA-466, 5-((1-cyclobutyl-1H-pyrazol-3-yl)amino)-N-(3-hydroxy-2,6-dimethylphenyl)-1,3,4-thiadiazole-2-carboxamide] |
| 1000 to 11000 | X (100-<1000 fold) | < 50 | Cc1ccc(O)c(Br)c1NC(=O)c1cnc(Nc2ccn(C)n2)s1 [BAA-468, N-(2-bromo-3-hydroxy-6-methyl-phenyl)-2-[(1-methylpyrazol-3-yl)amino]thiazole-5-carboxamide] |
| > 11000 | X (100-<1000 fold) | 50 to 1000 | CCc1c(O)ccc(C)c1NC(=O)c1cnc(Nc2ccn(C)n2)s1 [BAA-469, N-(2-Ethyl-3-hydroxy-6-methylphenyl)-2-((1-methyl-1H-pyrazol-3-yl)amino)thiazole-5-carboxamide] |
| > 11000 | X (100-<1000 fold) | < 50 | Cn1cc(Br)c(Nc2ncc(C(=O)Nc3c(F)ccc(O)c3Cl)s2)n1 [BAA-472, 2-((4-Bromo-1-methyl-1H-pyrazol-3-yl)amino)-N-(2-chloro-6-fluoro-3-hydroxyphenyl)thiazole-5-carboxamide] |
| > 11000 | X (100-<1000 fold) | 50 to 1000 | Cc1c(O)ccc(Cl)c1NC(=O)c1cnc(Nc2ccn(C)n2)s1 [BAA-474, N-(6-Chloro-3-hydroxy-2-methyl-phenyl)-2-[(1-methylpyrazol-3-yl)amino]thiazole-5-carboxamide] |
| > 11000 | Y (1000-5000 fold) | < 50 | CCc1c(O)ccc(C)c1NC(=O)c1cnc(Nc2ccn(CC(=O)N3CCCC3)n2)s1 [BAA-475, N-(2-ethyl-3-hydroxy-6-methylphenyl)-2-((1-(2-oxo-2-(pyrrolidin-1-yl)ethyl)-1H-pyrazol-3-yl)amino) thiazole-5-carboxamide] |
| 1000 to 11000 | X (100-<1000 fold) | < 50 | Cc1ccc(O)c(Br)c1NC(=O)c1cnc(Nc2ccn(CC(=O)N3CCCC3)n2)s1 [BAA-476] |
| > 11000 | W (10-<100 fold) | 50 to 1000 | Cn1ccc(Nc2ncc(C(=O)Nc3c(Cl)ccc(O)c3F)s2)n1 [BAA-479, N-(6-Chloro-2-fluoro-3-hydroxyphenyl)-2-((1-methyl-1H-pyrazol-3-yl)amino)thiazole-5-carboxamide] |
| > 11000 | X (100-<1000 fold) | 50 to 1000 | Cn1ccc(Nc2ncc(C(=O)Nc3c(F)ccc(O)c3Cl)s2)n1 [BAA-480, N-(2-Chloro-6-fluoro-3-hydroxyphenyl)-2-((1-methyl-1H-pyrazol-3-yl)amino)thiazole-5-carboxamide] |
| > 11000 | Y (1000-5000 fold) | < 50 | O=C(Nc1c(Cl)ccc(O)c1F)c1cnc(Nc2ccn(CC(=O)N3CCCC3)n2)s1 [BAA-481, N-(6-Chloro-2-fluoro-3-hydroxy-phenyl)-2-[[1-(2-oxo-2-pyrrolidin-1-yl-ethyl)pyrazol-3-yl]amino]thiazole-5-carboxamide] |
| > 11000 | Y (1000-5000 fold) | < 50 | O=C(Nc1c(F)ccc(O)c1Cl)c1cnc(Nc2ccn(CC(=O)N3CCCC3)n2)s1 [BAA-482, N-(2-chloro-6-fluoro-3-hydroxyphenyl)-2-((1-(2-oxo-2-(pyrrolidin-1-yl)ethyl)-1H-pyrazol-3-yl)amino) thiazole-5-carboxamide] |
| > 11000 | X (100-<1000 fold) | 50 to 1000 | Cc1ccccc1Nc1ncc(C(=O)Nc2c(C)ccc(O)c2C)s1 [BAA-483, N-(3-hydroxy-2,6-dimethylphenyl)-2-(o-tolylamino)thiazole-5-carboxamide] |
| > 11000 | X (100-<1000 fold) | 50 to 1000 | CCc1ccccc1Nc1ncc(C(=O)Nc2c(C)ccc(O)c2C)s1 [BAA-484, 2-((2-ethylphenyl)amino)-N-(3-hydroxy-2,6-dimethylphenyl)thiazole-5-carboxamide] |
| > 11000 | X (100-<1000 fold) | < 50 | Cc1ccc(O)c(C)c1NC(=O)c1cnc(Nc2cccc3ncsc23)s1 [BAA-485, 2-(benzo[d]thiazol-7-ylamino)-N-(3-hydroxy-2,6-dimethylphenyl)thiazole-5-carboxamide] |
| > 11000 | X (100-<1000 fold) | 50 to 1000 | Cc1ccc(O)c(C)c1NC(=O)c1cnc(Nc2cccc3scnc23)s1 [BAA-486, 2-(benzo[d]thiazol-4-ylamino)-N-(3-hydroxy-2,6-dimethylphenyl)thiazole-5-carboxamide] |
| > 11000 | X (100-<1000 fold) | 50 to 1000 | Cc1ccc(O)c(C)c1NC(=O)c1cnc(Nc2cccc3cccnc23)s1 [BAA-487, N-(3-hydroxy-2,6-dimethylphenyl)-2-(quinolin-8-ylamino) thiazole-5-carboxamide] |
| > 11000 | X (100-<1000 fold) | 50 to 1000 | Cc1ccc(O)c(C)c1NC(=O)c1cnc(Nc2cc(Br)n(C)n2)s1 [BAA-494, 2-((5-Bromo-1-methyl-1H-pyrazol-3-yl)amino)-N-(3-hydroxy-2,6-dimethylphenyl)thiazole-5-carboxamide] |
| > 11000 | Y (1000-5000 fold) | < 50 | Cc1ccc(O)c(C)c1NC(=O)c1cnc(Nc2nn(C)cc2C#N)s1 [BAA-496, 2-((4-cyano-1-methyl-1H-pyrazol-3-yl)amino)-N-(3-hydroxy-2,6-dimethylphenyl)thiazole-5-carboxamide] |
| 1000 to 11000 | W (10-<100 fold) | 50 to 1000 | Cc1c(O)ccc(Br)c1NC(=O)c1cnc(Nc2ccn(C)n2)s1 [BAA-498, N-(6-bromo-3-hydroxy-2-methylphenyl)-2-((1-methyl-1H-pyrazol-3-yl)amino)thiazole-5-carboxamide] |
| > 11000 | X (100-<1000 fold) | < 50 | Cc1cn(C(C)C(=O)N2CCN(C)CC2)nc1Nc1ncc(C(=O)Nc2c(C)ccc(O)c2C)s1 (stereo not drawn) [BAA-500, N-(3-hydroxy-2,6-dimethylphenyl)-2-((4-methyl-1-(1-(4-methylpiperazin-1-yl)-1-oxopropan-2-yl)-1H-pyrazol-3-yl)amino)thiazole-5-carboxamide] |
| > 11000 | W (10-<100 fold) | 50 to 1000 | Cc1cn(CCN(C)C)nc1Nc1ncc(C(=O)Nc2c(C)ccc(O)c2C)s1 [BAA-501, 2-((1-(2-(dimethylamino)ethyl)-4-methyl-1H-pyrazol-3-yl)amino)-N-(3-hydroxy-2,6-dimethylphenyl)thiazole-5-carboxamide] |
| 1000 to 11000 | W (10-<100 fold) | 50 to 1000 | CCOc1ccc(Nc2ncc(C(=O)Nc3c(C)ccc(O)c3C)s2)cc1 [BAA-503, 2-((4-ethoxyphenyl)amino)-N-(3-hydroxy-2,6-dimethylphenyl)thiazole-5-carboxamide] |
| 1000 to 11000 | W (10-<100 fold) | 50 to 1000 | Cc1ccc(O)c(C)c1NC(=O)c1cnc(Nc2cc(C#N)n(C)n2)s1 [BAA-505, 2-((5-cyano-1-methyl-1H-pyrazol-3-yl)amino)-N-(3-hydroxy-2,6-dimethylphenyl)thiazole-5-carboxamide] |
